ChEMBL document CHEMBL2203184, “Synthesis of novel triplet drugs with 1,3,5-trioxazatriquinane skeletons and their pharmacologies. 3: synthesis of novel triplet drugs with the bis(epoxymethano) or bis(dimethylepoxymethano) structure (double-capped triplet)” (Bioorg Med Chem Lett, 2012)
pEC50, pKi: −log10 of the molar value.

Tests used:
[1] = Selectivity ratio of Ki for mu opioid receptor in mouse whole brain without cerebellum to Ki for kappa opioid receptor in guinea pig cerebellum
[2] = Selectivity ratio of Ki for delta opioid receptor in mouse whole brain without cerebellum to Ki for kappa opioid receptor in guinea pig cerebellum
[3] = species on record: Mus musculus; test: Selectivity ratio of Ki for delta opioid receptor in mouse whole brain without cerebellum to Ki for mu opioid receptor in mouse whole brain without cerebellum
[4] = target: Delta-type opioid receptor (Mus musculus, UniProt P32300); test: Displacement of [3H]DPDPE from delta opioid receptor in mouse whole brain without cerebellum
Sequence of Delta-type opioid receptor (P32300 whole entry): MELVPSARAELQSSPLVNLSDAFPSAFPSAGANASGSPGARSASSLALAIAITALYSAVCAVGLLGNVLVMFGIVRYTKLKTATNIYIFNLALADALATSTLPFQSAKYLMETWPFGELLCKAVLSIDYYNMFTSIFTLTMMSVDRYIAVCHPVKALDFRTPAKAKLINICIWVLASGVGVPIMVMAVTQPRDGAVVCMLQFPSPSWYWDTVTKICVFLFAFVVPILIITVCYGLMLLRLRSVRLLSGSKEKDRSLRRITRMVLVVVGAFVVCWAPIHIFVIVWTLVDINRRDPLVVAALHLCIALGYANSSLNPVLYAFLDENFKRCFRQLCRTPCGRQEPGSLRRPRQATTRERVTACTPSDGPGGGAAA

[5] = target: Mu-type opioid receptor (Mus musculus, UniProt P42866); test: Displacement of [3H]DAMGO from mu opioid receptor in mouse whole brain without cerebellum
Sequence of Mu-type opioid receptor (Mus musculus, UniProt P42866) (P42866 whole entry): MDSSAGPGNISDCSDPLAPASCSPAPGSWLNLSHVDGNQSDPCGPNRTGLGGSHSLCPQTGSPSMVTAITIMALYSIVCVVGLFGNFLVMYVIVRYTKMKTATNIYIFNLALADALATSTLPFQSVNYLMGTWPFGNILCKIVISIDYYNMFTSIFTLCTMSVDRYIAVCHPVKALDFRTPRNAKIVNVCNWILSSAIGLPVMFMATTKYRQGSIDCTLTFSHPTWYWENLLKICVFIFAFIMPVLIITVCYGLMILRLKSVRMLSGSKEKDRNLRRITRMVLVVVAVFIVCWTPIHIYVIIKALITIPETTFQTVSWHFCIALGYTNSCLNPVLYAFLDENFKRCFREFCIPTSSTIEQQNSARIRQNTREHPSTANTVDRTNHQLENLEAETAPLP

[6] = target: Kappa-type opioid receptor (Cavia porcellus, UniProt P41144); test: Displacement of [3H]U-69,593 from kappa opioid receptor in guinea pig cerebellum
Sequence of Kappa-type opioid receptor (Cavia porcellus, UniProt P41144) (P41144 whole entry): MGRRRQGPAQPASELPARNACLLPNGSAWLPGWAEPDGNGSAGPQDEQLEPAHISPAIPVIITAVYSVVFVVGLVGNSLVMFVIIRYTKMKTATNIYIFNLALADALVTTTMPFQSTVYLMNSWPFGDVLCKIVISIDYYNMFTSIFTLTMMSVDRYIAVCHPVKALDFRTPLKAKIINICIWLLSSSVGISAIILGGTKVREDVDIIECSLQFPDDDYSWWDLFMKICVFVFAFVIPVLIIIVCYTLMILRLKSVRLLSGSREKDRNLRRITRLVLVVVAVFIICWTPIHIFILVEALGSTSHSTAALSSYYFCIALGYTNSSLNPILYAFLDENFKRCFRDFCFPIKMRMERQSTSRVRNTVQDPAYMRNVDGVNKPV

[7] = Selectivity ratio of Ki for kappa opioid receptor in guinea pig cerebellum to Ki for mu opioid receptor in mouse whole brain without cerebellum
[8] = target: T1, Kappa-type opioid receptor (Homo sapiens, UniProt P41145); test: Agonist activity at human kappa opioid receptor expressed in CHO cells assessed as [35S]GTPgammaS binding after 2 hrs by liquid scintillation counting relative to U-69,593; assay type: functional, cell-based
T1 sequence (P41145 whole entry): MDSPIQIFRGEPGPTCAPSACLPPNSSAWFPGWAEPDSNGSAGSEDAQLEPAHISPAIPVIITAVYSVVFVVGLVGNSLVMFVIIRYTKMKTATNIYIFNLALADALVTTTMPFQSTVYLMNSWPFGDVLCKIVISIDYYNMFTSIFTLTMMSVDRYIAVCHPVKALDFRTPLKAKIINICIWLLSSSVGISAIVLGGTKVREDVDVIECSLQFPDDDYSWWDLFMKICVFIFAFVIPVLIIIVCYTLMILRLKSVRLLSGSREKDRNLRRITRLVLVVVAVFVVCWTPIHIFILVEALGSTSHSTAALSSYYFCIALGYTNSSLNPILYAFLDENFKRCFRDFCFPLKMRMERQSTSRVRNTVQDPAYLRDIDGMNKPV

[9] = target: T1, Kappa-type opioid receptor; test: Agonist activity at human kappa opioid receptor expressed in CHO cells assessed as [35S]GTPgammaS binding after 2 hrs by liquid scintillation counting; assay type: functional, cell-based
[10] = target: T2, Mu-type opioid receptor (Homo sapiens, UniProt P35372); test: Agonist activity at human mu opioid receptor expressed in CHO cells assessed as [35S]GTPgammaS binding after 2 hrs by liquid scintillation counting; assay type: functional, cell-based
T2 sequence (P35372 whole entry): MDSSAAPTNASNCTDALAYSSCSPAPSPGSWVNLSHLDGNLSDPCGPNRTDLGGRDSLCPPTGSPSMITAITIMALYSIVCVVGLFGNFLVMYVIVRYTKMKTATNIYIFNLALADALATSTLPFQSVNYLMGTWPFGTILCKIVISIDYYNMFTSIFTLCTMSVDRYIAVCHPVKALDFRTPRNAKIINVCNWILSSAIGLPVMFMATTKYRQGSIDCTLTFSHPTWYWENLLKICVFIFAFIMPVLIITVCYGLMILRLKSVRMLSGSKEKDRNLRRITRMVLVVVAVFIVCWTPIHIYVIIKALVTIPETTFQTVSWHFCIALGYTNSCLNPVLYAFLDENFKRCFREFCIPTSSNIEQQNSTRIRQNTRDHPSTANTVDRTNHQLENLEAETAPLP

[11] = target: T2, Mu-type opioid receptor; test: Agonist activity at human mu opioid receptor expressed in CHO cells assessed as [35S]GTPgammaS binding after 2 hrs by liquid scintillation counting relative to DAMGO; assay type: functional, cell-based

CC(C)CN1CC[C@]23c4c5ccc(O)c4O[C@H]2[C@]2(CC[C@@]3(O)[C@H]1C5)O[C@@H]1N3[C@@H](OC1(C)C)C(C)(C)O[C@H]32
Ratio Ki [1]: < 0.134
Ratio Ki [2]: < 0.541
Ratio Ki [3]: 4.04
pKi [4]: 6.27
pKi [5]: 6.87
pKi [6]: < 6.00
Ratio Ki [7]: > 7.46

Oc1ccc2c3c1O[C@H]1[C@]4(CC[C@@]5(O)[C@@H](C2)N(Cc2ccccc2)CC[C@]315)O[C@H]1CO[C@H]2CO[C@@H]4N21
Ratio Ki [1]: < 0.581
Ratio Ki [2]: < 0.084
Ratio Ki [3]: 0.145
pKi [4]: 7.08
pKi [5]: 6.24
pKi [6]: < 6.00
Ratio Ki [7]: > 1.72

CC1(C)O[C@@H]2N3[C@H]1O[C@]1(CC[C@@]4(O)[C@H]5Cc6ccc(O)c7c6[C@@]4(CCN5CC4CC4)[C@H]1O7)[C@@H]3OC2(C)C
Ratio Ki [1]: 0.221
Ratio Ki [2]: 0.909
Ratio Ki [3]: 4.11
pKi [4]: 7.66
pKi [5]: 8.27
pKi [6]: 7.62
Ratio Ki [7]: 4.52

CN1CC[C@]23c4c5ccc(O)c4O[C@H]2[C@]2(CC[C@@]3(O)[C@H]1C5)O[C@@H]1N3[C@@H](OC1(C)C)C(C)(C)O[C@H]32
Ratio Ki [1]: < 0.0027
Ratio Ki [2]: < 0.0098
Ratio Ki [3]: 3.66
pKi [4]: 8.01
pKi [5]: 8.57
pKi [6]: < 6.00
Ratio Ki [7]: > 375

CC1(C)O[C@H]2N3[C@@H]1O[C@]1(CC[C@@]4(O)[C@H]5Cc6ccc(O)c7c6[C@@]4(CCN5CC4CC4)[C@H]1O7)[C@H]3OC2(C)C
Ratio Ki [1]: 0.271
Ratio Ki [2]: 9.1
Ratio Ki [3]: 33.6
pKi [4]: 7.14
pKi [5]: 8.67
pKi [6]: 8.10
Ratio Ki [7]: 3.69

CN1CC[C@]23c4c5ccc(O)c4O[C@H]2[C@]2(CC[C@@]3(O)[C@H]1C5)O[C@H]1CO[C@H]3CO[C@@H]2N31
Ratio Ki [1]: < 0.0024
Ratio Ki [2]: < 0.133
Ratio Ki [3]: 55.9
pKi [4]: 6.88
pKi [5]: 8.62
pKi [6]: < 6.00
Ratio Ki [7]: > 420

CC(C)CN1CC[C@]23c4c5ccc(O)c4O[C@H]2[C@]2(CC[C@@]3(O)[C@H]1C5)O[C@@H]1CO[C@@H]3CO[C@H]2N31
Ratio Ki [1]: < 0.099
Ratio Ki [2]: < 0.079
Ratio Ki [3]: 0.798
pKi [4]: 7.10
pKi [5]: 7.00
pKi [6]: < 6.00
Ratio Ki [7]: > 10.1

CC(C)CN1CC[C@]23c4c5ccc(O)c4O[C@H]2[C@]2(CC[C@@]3(O)[C@H]1C5)O[C@H]1N3[C@H](OC1(C)C)C(C)(C)O[C@@H]32
Ratio Ki [1]: < 0.088
Ratio Ki [3]: > 11.4
pKi [4]: < 6.00
pKi [5]: 7.06
pKi [6]: < 6.00
Ratio Ki [7]: > 11.4

CC1(C)O[C@@H]2N3[C@H]1O[C@]1(CC[C@@]4(O)[C@H]5Cc6ccc(O)c7c6[C@@]4(CCN5Cc4ccccc4)[C@H]1O7)[C@@H]3OC2(C)C
pKi [4]: < 6.00
pKi [5]: < 6.00
pKi [6]: < 6.00

Oc1ccc2c3c1O[C@H]1[C@]4(CC[C@@]5(O)[C@@H](C2)N(CC2CC2)CC[C@]315)O[C@@H]1CO[C@@H]2CO[C@H]4N21
Ratio Ki [1]: 2.24
Emax [8]: 70%
Ratio Ki [2]: 25.9
Ratio Ki [3]: 11.5
pKi [4]: 7.00
pKi [5]: 8.06
pEC50 [9]: 7.60
pKi [6]: 8.41
Ratio Ki [7]: 0.446

Oc1ccc2c3c1O[C@H]1[C@]4(CC[C@@]5(O)[C@@H](C2)N(Cc2ccccc2)CC[C@]315)O[C@@H]1CO[C@@H]2CO[C@H]4N21
pKi [4]: < 6.00
pKi [5]: < 6.00
pKi [6]: < 6.00

CN1CC[C@]23c4c5ccc(O)c4O[C@H]2[C@]2(CC[C@@]3(O)[C@H]1C5)O[C@H]1N3[C@H](OC1(C)C)C(C)(C)O[C@@H]32
Ratio Ki [1]: < 0.0019
pEC50 [10]: 8.22
Ratio Ki [2]: < 0.079
Emax [11]: 79.1%
Ratio Ki [3]: 42.8
pKi [4]: 7.10
pKi [5]: 8.73
pKi [6]: < 6.00
Ratio Ki [7]: > 541

CC(C)CN1CC[C@]23c4c5ccc(O)c4O[C@H]2[C@]2(CC[C@@]3(O)[C@H]1C5)O[C@H]1CO[C@H]3CO[C@@H]2N31
Ratio Ki [1]: < 0.086
Ratio Ki [2]: < 0.848
Ratio Ki [3]: 9.89
pKi [4]: 6.07
pKi [5]: 7.07
pKi [6]: < 6.00
Ratio Ki [7]: > 11.7

CN1CC[C@]23c4c5ccc(O)c4O[C@H]2[C@]2(CC[C@@]3(O)[C@H]1C5)O[C@@H]1CO[C@@H]3CO[C@H]2N31
Ratio Ki [1]: 0.0214
Ratio Ki [2]: 1.57
Ratio Ki [3]: 73.1
pKi [4]: 6.77
pKi [5]: 8.63
pKi [6]: 6.96
Ratio Ki [7]: 46.6

Oc1ccc2c3c1O[C@H]1[C@]4(CC[C@@]5(O)[C@@H](C2)N(CC2CC2)CC[C@]315)O[C@H]1CO[C@H]2CO[C@@H]4N21
Ratio Ki [1]: 1.15
Ratio Ki [2]: 13.2
Ratio Ki [3]: 11.5
pKi [4]: 7.10
pKi [5]: 8.16
pKi [6]: 8.23
Ratio Ki [7]: 0.869

CC1(C)O[C@H]2N3[C@@H]1O[C@]1(CC[C@@]4(O)[C@H]5Cc6ccc(O)c7c6[C@@]4(CCN5Cc4ccccc4)[C@H]1O7)[C@H]3OC2(C)C
Ratio Ki [1]: < 0.45
Ratio Ki [3]: > 2.22
pKi [4]: < 6.00
pKi [5]: 6.35
pKi [6]: < 6.00
Ratio Ki [7]: > 2.22
